In ChEMBL document CHEMBL5154774, “Discovery of Novel Celastrol-Imidazole Derivatives with Anticancer Activity In Vitro and In Vivo” (J Med Chem, 2022):

Legend:
U2OS = assay: Antiproliferative activity against human U2OS cells assessed as inhibition of cell growth incubated for 48 hrs by MTT assay; type: functional, cell-based
A549 [1] = assay: Antiproliferative activity against human A549 cells assessed as inhibition of cell growth incubated for 48 hrs by MTT assay; type: functional, cell-based; conditions: A549, 48 h
HCT-116 = assay: Antiproliferative activity against human HCT-116 cells assessed as inhibition of cell growth incubated for 48 hrs by MTT assay; type: functional, cell-based; conditions: HCT-116, 48 h
MDA-MB-231 = assay: Antiproliferative activity against human MDA-MB-231 cells assessed as inhibition of cell growth incubated for 48 hrs by MTT assay; type: functional, cell-based; conditions: MDA-MB-231, 48 h
A549 [2] = assay: Antitumor activity against human A549 cells xenografted in BALB/c mouse lung tumor model assessed as tumor weight at 1 mg/kg, ip measured every day for 21 days by caliper method; type: functional; conditions: time 21 day
A549 [3] = assay: Antiproliferative activity against human A549 cells expressing Cdc37 protein assessed as inhibition of cell growth incubated for 48 hrs by MTT assay; type: functional, cell-based; conditions: A549, 48 h
A549 [4] = assay: Antitumor activity against human A549 cells xenografted in BALB/c mouse lung tumor model assessed as tumor inhibition rate at 1 mg/kg, ip measured every day for 21 days by caliper method relative to control; type: functional; conditions: A549, 504 h, time 21 day
A549 [5] = assay: Antiproliferative activity against human A549 cells expressing Hsp90-Cdc37 protein assessed as inhibition of cell growth incubated for 48 hrs by MTT assay; type: functional, cell-based; conditions: A549, 48 h
A549 [6] = assay: Antiproliferative activity against human A549 cells expressing Hsp90 protein assessed as inhibition of cell growth incubated for 48 hrs by MTT assay; type: functional, cell-based; conditions: A549, 48 h

Row | Structure (SMILES) | IC50 (U2OS) | IC50 (A549 [1]) | IC50 (HCT-116) | IC50 (MDA-MB-231) | Activity (A549 [2]) | IC50 (A549 [3]) | inhibition in vivo at 1 mg/kg (A549 [4]) | IC50 (A549 [5]) | IC50 (A549 [6])
1 | CC1=C(O)C(=O)C=C2C1=CC=C1[C@@]2(C)CC[C@@]2(C)[C@@H]3C[C@](C)(C(=O)OCCCn4cnc(C#N)c4C#N)CC[C@]3(C)CC[C@]12C | 1450 nM | 790 nM | 720 nM | 1450 nM |  |  |  |  | 
2 | COC(=O)c1cn(CCCOC(=O)[C@]2(C)CC[C@]3(C)CC[C@]4(C)C5=CC=C6C(=CC(=O)C(O)=C6C)[C@]5(C)CC[C@@]4(C)[C@@H]3C2)cn1 | 1350 nM | 740 nM | 690 nM | 1650 nM |  |  |  |  | 
3 | COC(=O)[C@]12CCC(C)(C)C[C@H]1[C@H]1C(=O)C=C3[C@@]4(C)C=C(C#N)C(=O)C(C)(C)[C@@H]4CC[C@@]3(C)[C@]1(C)CC2 [BARDOXOLONE METHYL] | 740 nM | 630 nM | 840 nM | 560 nM |  |  |  |  | 
4 | CC1=C(O)C(=O)C=C2C1=CC=C1[C@@]2(C)CC[C@@]2(C)[C@@H]3C[C@](C)(C(=O)OCCCCn4cnc(C#N)c4C#N)CC[C@]3(C)CC[C@]12C | 1580 nM | 1660 nM | 1530 nM | 1670 nM |  |  |  |  | 
5 | CC1=C(O)C(=O)C=C2C1=CC=C1[C@@]2(C)CC[C@@]2(C)[C@@H]3C[C@](C)(C(=O)OCCCn4cnc(C)c4)CC[C@]3(C)CC[C@]12C | 1450 nM | 1970 nM | 1290 nM | 1550 nM |  |  |  |  | 
6 | COC(=O)c1cn(CCCCCCOC(=O)[C@]2(C)CC[C@]3(C)CC[C@]4(C)C5=CC=C6C(=CC(=O)C(O)=C6C)[C@]5(C)CC[C@@]4(C)[C@@H]3C2)cn1 | 1480 nM | 1090 nM | 1340 nM | 1920 nM |  |  |  |  | 
7 | CC1=C(O)C(=O)C=C2C1=CC=C1[C@@]2(C)CC[C@@]2(C)[C@@H]3C[C@](C)(C(=O)O)CC[C@]3(C)CC[C@]12C [CELASTROL] | 1860 nM | 1680 nM | 1810 nM | 1980 nM | 0.67 g | > 100000 nM | 52.7% | > 100000 nM | > 100000 nM
8 | COC(=O)c1cn(CCCCCOC(=O)[C@]2(C)CC[C@]3(C)CC[C@]4(C)C5=CC=C6C(=CC(=O)C(O)=C6C)[C@]5(C)CC[C@@]4(C)[C@@H]3C2)cn1 | 880 nM | 780 nM | 670 nM | 1550 nM |  |  |  |  | 
9 | CC1=C(O)C(=O)C=C2C1=CC=C1[C@@]2(C)CC[C@@]2(C)[C@@H]3C[C@](C)(C(=O)OCCCCCn4cnc([N+](=O)[O-])c4)CC[C@]3(C)CC[C@]12C | 600 nM | 710 nM | 610 nM | 600 nM |  |  |  |  | 
10 | COC(=O)c1cn(CCCCOC(=O)[C@]2(C)CC[C@]3(C)CC[C@]4(C)C5=CC=C6C(=CC(=O)C(O)=C6C)[C@]5(C)CC[C@@]4(C)[C@@H]3C2)cn1 | 1520 nM | 1040 nM | 950 nM | 1870 nM |  |  |  |  | 
11 | CC1=C(O)C(=O)C=C2C1=CC=C1[C@@]2(C)CC[C@@]2(C)[C@@H]3C[C@](C)(C(=O)OCCCn4ccnc4[N+](=O)[O-])CC[C@]3(C)CC[C@]12C | 800 nM | 750 nM | 1050 nM | 900 nM |  |  |  |  | 
12 | CC1=C(O)C(=O)C=C2C1=CC=C1[C@@]2(C)CC[C@@]2(C)[C@@H]3C[C@](C)(C(=O)OCCCCCn4cnc(C#N)c4C#N)CC[C@]3(C)CC[C@]12C | 1470 nM | 1450 nM | 790 nM | 1570 nM |  |  |  |  | 
13 | CC1=C(O)C(=O)C=C2C1=CC=C1[C@@]2(C)CC[C@@]2(C)[C@@H]3C[C@](C)(C(=O)OCCCCCCn4cnc(C#N)c4C#N)CC[C@]3(C)CC[C@]12C | 1730 nM | 1080 nM | 1160 nM | 1660 nM |  |  |  |  | 
14 | CC1=C(O)C(=O)C=C2C1=CC=C1[C@@]2(C)CC[C@@]2(C)[C@@H]3C[C@](C)(C(=O)OCCCCn4ccnc4[N+](=O)[O-])CC[C@]3(C)CC[C@]12C | 910 nM | 1060 nM | 1550 nM | 1020 nM |  |  |  |  | 
15 | CC1=C(O)C(=O)C=C2C1=CC=C1[C@@]2(C)CC[C@@]2(C)[C@@H]3C[C@](C)(C(=O)OCCCCCCn4ccnc4[N+](=O)[O-])CC[C@]3(C)CC[C@]12C | 830 nM | 730 nM | 640 nM | 1210 nM |  |  |  |  | 
16 | CC1=C(O)C(=O)C=C2C1=CC=C1[C@@]2(C)CC[C@@]2(C)[C@@H]3C[C@](C)(C(=O)OCCCn4ccnc4)CC[C@]3(C)CC[C@]12C | 1650 nM | 1570 nM | 1090 nM | 1550 nM |  |  |  |  | 
17 | CC1=C(O)C(=O)C=C2C1=CC=C1[C@@]2(C)CC[C@@]2(C)[C@@H]3C[C@](C)(C(=O)OCCCCCn4ccnc4[N+](=O)[O-])CC[C@]3(C)CC[C@]12C | 680 nM | 710 nM | 600 nM | 980 nM |  |  |  |  | 
18 | CC1=C(O)C(=O)C=C2C1=CC=C1[C@@]2(C)CC[C@@]2(C)[C@@H]3C[C@](C)(C(=O)OCCCCCCn4cnc([N+](=O)[O-])c4)CC[C@]3(C)CC[C@]12C | 880 nM | 790 nM | 630 nM | 950 nM |  |  |  |  | 

More lines, main results first:

Row | IC50 (U2OS) | IC50 (A549 [1]) | IC50 (HCT-116) | IC50 (MDA-MB-231) | Structure (SMILES) | Activity (A549 [2]) | IC50 (A549 [3]) | inhibition in vivo at 1 mg/kg (A549 [4]) | IC50 (A549 [5]) | IC50 (A549 [6])
19 | 600 nM | 750 nM | 780 nM | 930 nM | CC1=C(O)C(=O)C=C2C1=CC=C1[C@@]2(C)CC[C@@]2(C)[C@@H]3C[C@](C)(C(=O)OCCCCCn4cc([N+](=O)[O-])nc4Cl)CC[C@]3(C)CC[C@]12C |  |  |  |  | 
20 | 890 nM | 770 nM | 700 nM | 890 nM | CC1=C(O)C(=O)C=C2C1=CC=C1[C@@]2(C)CC[C@@]2(C)[C@@H]3C[C@](C)(C(=O)OCCCCn4cnc([N+](=O)[O-])c4)CC[C@]3(C)CC[C@]12C |  |  |  |  | 
21 | 910 nM | 900 nM | 1120 nM | 990 nM | CC1=C(O)C(=O)C=C2C1=CC=C1[C@@]2(C)CC[C@@]2(C)[C@@H]3C[C@](C)(C(=O)OCCCCCCn4cc([N+](=O)[O-])nc4Cl)CC[C@]3(C)CC[C@]12C |  |  |  |  | 
22 | 600 nM | 800 nM | 660 nM | 1150 nM | CC1=C(O)C(=O)C=C2C1=CC=C1[C@@]2(C)CC[C@@]2(C)[C@@H]3C[C@](C)(C(=O)OCCCn4cc([N+](=O)[O-])nc4Br)CC[C@]3(C)CC[C@]12C |  |  |  |  | 
23 | 610 nM | 810 nM | 700 nM | 980 nM | CC1=C(O)C(=O)C=C2C1=CC=C1[C@@]2(C)CC[C@@]2(C)[C@@H]3C[C@](C)(C(=O)OC/C=C/Cn4cc([N+](=O)[O-])nc4Cl)CC[C@]3(C)CC[C@]12C |  |  |  |  | 
24 | 700 nM | 670 nM | 630 nM | 690 nM | CC1=C(O)C(=O)C=C2C1=CC=C1[C@@]2(C)CC[C@@]2(C)[C@@H]3C[C@](C)(C(=O)OCCCn4cnc([N+](=O)[O-])c4)CC[C@]3(C)CC[C@]12C |  |  |  |  | 
25 | 670 nM | 810 nM | 1100 nM | 980 nM | CC1=C(O)C(=O)C=C2C1=CC=C1[C@@]2(C)CC[C@@]2(C)[C@@H]3C[C@](C)(C(=O)OCCCCCn4cc([N+](=O)[O-])nc4Br)CC[C@]3(C)CC[C@]12C |  |  |  |  | 
26 | 1460 nM | 1320 nM | 1930 nM | 1050 nM | CC1=C(O)C(=O)C=C2C1=CC=C1[C@@]2(C)CC[C@@]2(C)[C@@H]3C[C@](C)(C(=O)OCCCCCCn4cc([N+](=O)[O-])nc4Br)CC[C@]3(C)CC[C@]12C |  |  |  |  | 
27 | 620 nM | 790 nM | 720 nM | 1020 nM | CC1=C(O)C(=O)C=C2C1=CC=C1[C@@]2(C)CC[C@@]2(C)[C@@H]3C[C@](C)(C(=O)OCCCCn4cc([N+](=O)[O-])nc4Cl)CC[C@]3(C)CC[C@]12C |  |  |  |  | 
28 | 710 nM | 710 nM | 640 nM | 1030 nM | CC1=C(O)C(=O)C=C2C1=CC=C1[C@@]2(C)CC[C@@]2(C)[C@@H]3C[C@](C)(C(=O)OC/C=C/Cn4cnc([N+](=O)[O-])c4)CC[C@]3(C)CC[C@]12C |  |  |  |  | 
29 | 680 nM | 930 nM | 1850 nM | 1220 nM | CC1=C(O)C(=O)C=C2C1=CC=C1[C@@]2(C)CC[C@@]2(C)[C@@H]3C[C@](C)(C(=O)OCCCCn4cc([N+](=O)[O-])nc4Br)CC[C@]3(C)CC[C@]12C |  |  |  |  | 
